Columns and labels:
[1] = crystalline D-tagatose, at 20° C.; cited from earlier work
[2] = D-tagatose dissolved in tri-solvent systems; type: physicochemical
Source text: Tri-solvent systems may also be used. One example of a tri-solvent system is ethanol, methanol and water.
Table 2: Summarizes tri-solvent systems that have shown to dissolve D-tagatose.

[3] = granted 2004; such low toxicity that no daily intake monitoring is needed; cited from earlier work
[4] = Glass transition temperature (Tg) by DSC; type: physicochemical
Method: Glass transition temperatures were determined using DSC for physical mixtures of D-tagatose and respective excipients subjected to melt quenching. Samples were prepared by geometrically mixing D-tagatose and excipients at a 1:1 (w/w) ratio. Once mixed, the samples were then rigorously ground using a mortar and pestle before being hermetically sealed within a T-Zero pan. Once sealed, the samples were transferred to a Q2000 DSC (TA Instruments, New Castle, DE). All samples were run with the DSC operating in the modulation mode with a “pinhole” lid to better capture the sample's behavior instead of any residual vapors. The modulating method was first equilibrated at −20° C. before heating at 10° C./min to 140° C. […] Once −10° C. was reached, samples were set to modulate at ±0.5° C. every 60 s immediately and held for 5 min before ramping 1° C./min back to 140° C. Reported Tg values were averages of triplicate samples, each determined from the midpoint of the glass transition step change from the resultant reversible heat flow curves vs. temperature thermograms. All DSC mass samples were between 1 and 5 mg.

type 2 diabetes = settings: cited from earlier work
[5] = oral ingestion; cited from earlier work
[6] = D-tagatose fully dissolved in water:organic dual solvent systems; type: physicochemical
Source text: The solvent used in the spray-drying feed formulation may be substantially any solvent suitable for the intended purpose including, for example, an appropriate co-solvent system. That co-solvent system may include acetone and water. The acetone and water may be provided at a ratio of between 1:1 and 4.6:1 (v/v %). In other embodiments, the co-solvent system may include methanol and water, propanol and water or ethanol and water.

O=C(CO)[C@@H](O)[C@@H](O)[C@H](O)CO [D-tagatose, D-(−)-tagatose]
aqueous solubility [1]: 160 g/100 mL
amount of D-tagatose dissolved ([2]; 2-Propanol:Acetone:Water 1 mL:5 mL:3.8 mL, sonicate while adding water): ~1 gram
amount of D-tagatose dissolved ([2]; 2-Propanol:Acetone:Water 5 mL:1 mL:3.6 mL, sonicate while adding water): ~1 gram
amount of D-tagatose dissolved ([2]; 2-Propanol:Ethanol:Water 1 mL:5 mL:4.2 mL, sonicate while adding water): ~1 gram
amount of D-tagatose dissolved ([2]; 2-Propanol:Ethanol:Water 5 mL:1 mL:4.6 mL, sonicate while adding water): ~1 gram
w % Tagatose (dissolved) ([2]; Ethanol 1 mL + 5 mL methanol + water, 37.324 w % water, 51.789 w % organic): 10.887 w %
w % Tagatose (dissolved) ([2]; Ethanol 2 mL + 5 mL methanol + water, 36.185 w % water, 53.816 w % organic): 9.999 w %
w % Tagatose (dissolved) ([2]; Ethanol 3 mL + 5 mL methanol + water, 32.436 w % water, 58.272 w % organic): 9.292 w %
w % Tagatose (dissolved) ([2]; Methanol 1 mL + 5 mL ethanol + water, 39.808 w % water, 49.3620231 w % organic): 10.830 w %
w % Tagatose (dissolved) ([2]; Methanol 2 mL + 5 mL ethanol + water, 37.459 w % water, 52.8123019 w % organic): 9.729 w %
w % Tagatose (dissolved) ([2]; Methanol 3 mL + 5 mL ethanol + water, 35.506 w % water, 55.7893055 w % organic): 8.704 w %
amount of D-tagatose dissolved ([2]; Methanol:Ethanol:Water 5 mL:1 mL:3.4 mL): ~1 gram
safe daily intake [3]: not specified
dry Tg (glass transition temperature) [4]: 18.92 °C
effect on HbA1c (type 2 diabetes): lower
effect on LDL (type 2 diabetes): lower
effect on fasting blood glucose levels (type 2 diabetes): lower
effect on total cholesterol (type 2 diabetes): lower
fraction of orally ingested dose fully metabolized [5]: 20%
amount of D-tagatose dissolved ([6]; 2-Propanol:Water 5 mL:3.6 mL): ~1 gram
w % Tagatose (fully dissolved) ([6]; 2-Propanol:water, 45.6 w % water, 43.3 w % organic): 11.1 w %
amount of D-tagatose dissolved ([6]; Acetone:Water 5 mL:4.1 mL): ~1 gram
w % Tagatose (fully dissolved) ([6]; Acetone:water, 46.0 w % water, 42.7 w % organic): 11.3 w %
amount of D-tagatose dissolved ([6]; Ethanol:Water 5 mL:4.2 mL): ~1 gram
w % Tagatose (fully dissolved) ([6]; Ethanol:water, 45.9 w % water, 42.5 w % organic): 11.6 w %
amount of D-tagatose dissolved ([6]; Methanol:Water 5 mL:3.1 mL): ~1 gram
w % Tagatose (fully dissolved) ([6]; Methanol:water, 46.0 w % water, 42.7 w % organic): 11.2 w %
